How the values were obtained:
[1] = biological target: T1, recombinant D-AAO (Glutamicibacter protophormiae, UniProt Q7X2D3); assay: Substrate specificity of the recombinant D-AAO (photometric peroxidase/o-dianisidine test); format: biochemical, Arthrobacter protophormiae; details: for activity at 20000 µM: DL-amino acid, concentration increased to 20 mM; for activity at 20000 µM / activity at 10000 µM: read-out: Relative activity; for Substrate quality (in words): partial substrate spectrum, Table 2; for Stereoselectivity: conversion of L-amino acids by D-AAO: L-amino acids as substrate
T1 construct: The restriction sites NdeI and BamHI were attached to the dao gene by PCR; made in house; host or cells: E. coli BL21(DE3)
Description: (§1) To isolate D-AAO-forming microorganisms, soil samples were plated out on a nutrient medium in which coryneform bacteria can be concentrated: Na propionate 0.20 g; KNO3 0.01 g; KH2PO4 0.10 g; NaCl 0.25 g; MgSO4.7 H2O 0.10 g; CaCO3 0.02g; trace elements; vitamin solution; cycloheximide 0.05 g; if appropriate, agar 20.00 g; final pH 7.0. Microorganisms which grew on this medium were then transinoculated into a complex medium (DSM 65) with the following composition (per 1l): glucose 4.00 g; yeast extract 4.00 g; malt extract 10.00 g; agar 20 g; final pH 7.2. The strains were then multiplied in liquid medium (DSM 65), harvested by centrifugation, broken down, and the cell-free supernatant was obtained by centrifugation (=crude extract). This crude extract was then employed as an enzyme source for the photometric test for D-AAO activity. The test batch contained: 20 μl amino acid solution (100 mM); 80 μl TEA/o-dianisidine buffer; 10 μl peroxidase soln. (1,000 U/ml); 70 μl H2O; 20 μl crude extract. The measurement was carried out at 436 nm; 1 U corresponds to an amount of enzyme which converts 1 μmol of amino acid or 1 μmol of o-dianisidine per min (extinction coefficient ε for o-dianisidine=8.1 mM^−1 cm^−1).
A partial substrate spectrum was recorded for D-AAO (Table 2).
The stereoselectivity of the D-AAO was tested with the amino acids L-leucine, L-methionine and L-lysine. […] Thus, the D-AAO from Arthrobacter protophormiae can be described as highly stereoselective for D-amino acids.

[2] = biological target: T2, partly purified D-AAO (Glutamicibacter protophormiae, UniProt Q7X2D3); assay: biochemical; details: read-out: Substrate excess inhibition K1
T2 sequence (Q7X2D3 1-326): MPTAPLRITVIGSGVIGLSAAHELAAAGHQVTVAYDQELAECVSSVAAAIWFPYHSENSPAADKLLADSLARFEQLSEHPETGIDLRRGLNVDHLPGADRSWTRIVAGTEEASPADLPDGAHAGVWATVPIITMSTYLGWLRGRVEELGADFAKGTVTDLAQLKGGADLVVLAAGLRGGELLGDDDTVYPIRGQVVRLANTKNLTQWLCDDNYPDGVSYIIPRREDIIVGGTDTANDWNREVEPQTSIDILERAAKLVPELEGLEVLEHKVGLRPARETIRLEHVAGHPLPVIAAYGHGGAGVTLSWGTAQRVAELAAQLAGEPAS
Description: as §1

[3] = D-AAO activity assay (specific activity of enzyme preparations); format: biochemical
Description: as §1
Recombinant D-AAO was purified to homogeneity using a two-step procedure (Table 1). E. coli BL21(DE3) carrying pApdao was disrupted by ultrasonification and cell debris was removed by centrifugation. The cleared supernatant was loaded onto a Q-Sepharose FF column (h 10 cm×Ø 2.6 cm) (Amersham Bioscience), which was equilibrated with 10 mM potassium phosphate buffer pH 7.0 and run at a flow rate of 2 ml/min. The column was washed with 10 mM potassium phosphate buffer pH 7.0 containing 0.2 M NaCl and the D-AAO was eluted by increasing the salt concentration up to 0.35 M. Active fractions were pooled and loaded onto a column, which was packed with ceramic MacroPrep hydroxyapatite, type I (h 8.3 cm×Ø 1.6 cm) (Bio-Rad). The column was equilibrated with 10 mM potassium phosphate buffer pH 6.8 containing 150 mM NaCl and the flow rate was 2 ml/min. The D-AAO was detected in the flow-through.

[4] = biological target: T3, D-AAO (Glutamicibacter protophormiae, UniProt Q7X2D3); assay: Influence of pH on D-AAO activity; format: biochemical, Arthrobacter protophormiae; details: three substrates (lysine, phenylalanine, methionine), 10 mM; three 80 mM buffers
T3 sequence (Q7X2D3 whole entry, looked up): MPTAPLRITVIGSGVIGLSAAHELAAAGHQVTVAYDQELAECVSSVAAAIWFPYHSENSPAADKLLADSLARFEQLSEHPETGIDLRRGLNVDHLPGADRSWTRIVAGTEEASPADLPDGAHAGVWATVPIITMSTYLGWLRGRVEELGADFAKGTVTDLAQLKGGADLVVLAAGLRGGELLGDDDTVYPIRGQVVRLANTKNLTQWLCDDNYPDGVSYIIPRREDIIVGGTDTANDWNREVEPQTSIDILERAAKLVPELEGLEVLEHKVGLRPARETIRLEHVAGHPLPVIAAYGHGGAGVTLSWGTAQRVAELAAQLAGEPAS
Description: The enzyme activity was measured with three different substrates in the following 80 mM buffers: ♦ citric acid-sodium phosphate, pH 5–7; ▪ TEA/HCl, pH 7–8.5; ▴ glycine/NaOH, pH 8.5–11. Each D-amino acid tested was employed in a final concentration of 10 mM.
The influence of pH on the activity of the D-AAO with respect to the substrates […] was investigated in three different buffers: citric acid-sodium phosphate […]; TEA/HCl pH 7.0–8.5; and glycine/NaOH pH 8.5–11). The optimum pH for all three substrates was in the weakly basic range, between pH 7.5–8.5 (FIG. 2).

[5] = Isoelectric focussing of D-AAO; format: physicochemical; details: experimentally determined, polyacrylamide gels pH 4–6
Description: A molecular mass for a monomer of the D-AAO of 40 kDA was determined by means of SDS gel electrophoresis. […] The calculated molecular mass of the monomer was 34.6 kDa without and 35.4 kDa with FAD. These values indicate that the enzyme has a dimeric structure. Isoelectric focussing was performed using precast Serva polyacrylamide gels with a narrow pH range (pH 4–6). The experimentally determined pI was 4.4.

[6] = substrate: CSCC[C@@H](N)C(=O)O; assay: purified protein, by the assay type; details: other: partly purified D-AAO

NC(Cc1ccc(F)cc1)C(=O)O (racemic) [4-Fluoro-DL-phenylalanine]
activity at 20000 µM [1]: 81%

CC(C)(C)C(N)C(=O)O (racemic) [DL-tert-Leucine]
activity at 20000 µM [1]: 0.12%

CNC(CC(C)C)C(=O)O (racemic) [N-Methyl-DL-leucine]
activity at 20000 µM [1]: 2.1%

COCC(N)C(=O)O (racemic) [O-Methyl-DL-serine]
activity at 20000 µM [1]: 0.33%

C[C@@H](N)C(=O)O [D-Alanine]
activity at 10000 µM [1]: 0.26%

N=C(N)NCCC[C@@H](N)C(=O)O [D-Arginine]
Substrate quality (in words) [1]: effective in converting
activity at 10000 µM [1]: 80%

N[C@H](Cc1c[nH]cn1)C(=O)O [D-Histidine]
activity at 10000 µM [1]: 5.9%

CC(C)C[C@@H](N)C(=O)O [D-Leucine]
activity at 10000 µM [1]: 12%

NCCCC[C@@H](N)C(=O)O [D-Lysine]
Substrate quality (in words) [1]: best substrates
activity at 10000 µM [1]: 99%

CSCC[C@@H](N)C(=O)O [D-Methionine]
Substrate quality (in words) [1]: best substrates
activity at 10000 µM [1]: 100%

N[C@H](Cc1ccccc1)C(=O)O [D-Phenylalanine]
Ki [2]: 55 mM
Substrate quality (in words) [1]: effective in converting
activity at 10000 µM [1]: 54%

O=C(O)[C@H]1CCCN1 [D-Proline]
activity at 10000 µM [1]: 0.25%

CC(C)[C@@H](N)C(=O)O [D-Valine]
activity at 10000 µM [1]: 0.35%

CC[C@H](C)[C@@H](N)C(=O)O [D-allo-Isoleucine]
activity at 10000 µM [1]: 1%

CC(C)C[C@H](N)C(=O)O [L-leucine]
Stereoselectivity: conversion of L-amino acids by D-AAO [1]: None of these compounds were converted

NCCCC[C@H](N)C(=O)O [L-lysine]
Stereoselectivity: conversion of L-amino acids by D-AAO [1]: None of these compounds were converted

CSCC[C@H](N)C(=O)O [L-methionine]
Stereoselectivity: conversion of L-amino acids by D-AAO [1]: None of these compounds were converted

B1: partly purified D-AAO (Glutamicibacter protophormiae) (protein)
chain: MPTAPLRITVIGSGVIGLSAAHELAAAGHQVTVAYDQELAECVSSVAAAIWFPYHSENSPAADKLLADSLARFEQLSEHPETGIDLRRGLNVDHLPGADRSWTRIVAGTEEASPADLPDGAHAGVWATVPIITMSTYLGWLRGRVEELGADFAKGTVTDLAQLKGGADLVVLAAGLRGGELLGDDDTVYPIRGQVVRLANTKNLTQWLCDDNYPDGVSYIIPRREDIIVGGTDTANDWNREVEPQTSIDILERAAKLVPELEGLEVLEHKVGLRPARETIRLEHVAGHPLPVIAAYGHGGAGVTLSWGTAQRVAELAAQLAGEPAS
Specific activity ([3]; after Hydroxyapatite (second chromatography), 10 mM D-Met, pH 7.6, 30° C.): 180 U/mg
Specific activity ([3]; after Q-Sepharose, 10 mM D-Met, pH 7.6, 30° C.): 80 U/mg
Specific activity ([3]; after high cell density fermentation of E. coli BL21(DE3) carrying pE1D): 15 U mg^−1
Specific activity ([3]; crude extract, E. coli BL21(DE3), 3 g cells, 10 mM D-Met, pH 7.6, 30° C.): 30 U/mg
Specific activity in the crude extracts of recombinant cells ([3]; crude extracts of recombinant cells): 15–30 U mg^−1
Specific D-AAO activity in the crude extract ([3]; shaking flask, E. coli BL21(DE3) pE1D, 100 μM IPTG, 4 h at 30° C.): 30 U/mg
Optimum pH [4]: 7.5–8.5 pH
pI [5]: 4.4
Km [6]: 0.90 mM
